Assay results as given in patent publication US20120064062A1 (priority 2010, published 2012).
Where a SMILES comes first, the peptide text is derived from it. [ ]: non-standard residue; d: D form. The star is where a group is joined. Sta = CC(C)C[C@H](N)[C@@H](O)CC(=O)O; Isovaleryl = CC(C)CC(=O)*

What was measured:
Y. pestis Pla = Y. pestis Pla (Yersinia pestis, UniProt P17811); experiment: biochemical
Pla [1] = biological target: T1, Pla (Yersinia pestis, UniProt P17811); experiment: biochemical
Plasmin = Plasmin (Homo sapiens, UniProt P00747); experiment: Plasmin inhibitory activity counter-screen (coupling enzyme); format: biochemical; conditions: z-score = number of standard deviations the enzymatic activity falls below the DMSO non-inhibitory control
cathepsin E = biological target: T2, cathepsin E (Homo sapiens, UniProt P14091); experiment: Cathepsin E fluorometric counter-screen; format: biochemical; conditions: z-score = number of standard deviations below DMSO control
T2 construct: purchased R&D Systems 1294-AS-010
T2 sequence (P14091 54-396): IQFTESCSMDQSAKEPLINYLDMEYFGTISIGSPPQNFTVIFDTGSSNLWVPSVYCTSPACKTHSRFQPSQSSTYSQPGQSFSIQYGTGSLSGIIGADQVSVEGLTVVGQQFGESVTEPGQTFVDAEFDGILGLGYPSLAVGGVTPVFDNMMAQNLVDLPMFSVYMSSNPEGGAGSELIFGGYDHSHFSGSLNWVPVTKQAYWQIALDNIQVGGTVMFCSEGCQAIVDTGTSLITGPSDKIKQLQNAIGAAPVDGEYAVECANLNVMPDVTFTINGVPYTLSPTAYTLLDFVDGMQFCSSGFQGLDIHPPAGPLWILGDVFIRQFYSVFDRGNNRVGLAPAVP

HIV-1 protease = biological target: T3, HIV-1 protease (Human immunodeficiency virus type 1 group M subtype B, UniProt P04585); experiment: HIV-1 protease counter-screen; format: biochemical; conditions: % of the enzymatic activity of a DMSO non-inhibitory control
T3 construct: Plasmin, tPA, uPA, Cathepsin D, Cathepsin E, and HIV-1 protease

[2] = biological target: T4, tissue plasminogen activator (tPA) (Homo sapiens, UniProt P00750); experiment: tPA plasminogen activator counter-screen (Glu-Plg, S2251); format: biochemical; conditions: z-score = number of standard deviations below DMSO control
T4 construct: purchased US Biological, Inc. T5600-30

cathepsin D = biological target: T5, cathepsin D (Homo sapiens, UniProt P07339); experiment: Cathepsin D fluorometric counter-screen; format: biochemical; conditions: z-score = number of standard deviations below DMSO control
T5 construct: purchased R&D Systems 1014-AS-010

[3] = Cytotoxicity to HeLa cells in serum-free culture (MTS); conditions: human
[4] = biological target: T6, urokinase type plasminogen activator (uPA) (Homo sapiens, UniProt P00749); experiment: uPA plasminogen activator counter-screen (Glu-Plg, S2251); format: biochemical; conditions: z-score = number of standard deviations below DMSO control
T6 construct: purchased US Biological, Inc. U2605-01

Pla [5] = biological target: T1, Pla; format: biochemical
Target sequence in this assay (P17811 21-312 limits assumed): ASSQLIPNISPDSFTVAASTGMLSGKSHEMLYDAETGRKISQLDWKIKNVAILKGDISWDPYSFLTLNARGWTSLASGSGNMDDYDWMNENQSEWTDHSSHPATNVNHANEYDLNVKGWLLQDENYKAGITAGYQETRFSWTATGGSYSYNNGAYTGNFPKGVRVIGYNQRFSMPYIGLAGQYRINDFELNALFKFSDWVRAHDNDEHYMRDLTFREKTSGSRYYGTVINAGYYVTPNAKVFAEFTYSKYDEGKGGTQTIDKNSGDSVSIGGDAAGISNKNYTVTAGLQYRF

T4 sequence (P00750 36-562): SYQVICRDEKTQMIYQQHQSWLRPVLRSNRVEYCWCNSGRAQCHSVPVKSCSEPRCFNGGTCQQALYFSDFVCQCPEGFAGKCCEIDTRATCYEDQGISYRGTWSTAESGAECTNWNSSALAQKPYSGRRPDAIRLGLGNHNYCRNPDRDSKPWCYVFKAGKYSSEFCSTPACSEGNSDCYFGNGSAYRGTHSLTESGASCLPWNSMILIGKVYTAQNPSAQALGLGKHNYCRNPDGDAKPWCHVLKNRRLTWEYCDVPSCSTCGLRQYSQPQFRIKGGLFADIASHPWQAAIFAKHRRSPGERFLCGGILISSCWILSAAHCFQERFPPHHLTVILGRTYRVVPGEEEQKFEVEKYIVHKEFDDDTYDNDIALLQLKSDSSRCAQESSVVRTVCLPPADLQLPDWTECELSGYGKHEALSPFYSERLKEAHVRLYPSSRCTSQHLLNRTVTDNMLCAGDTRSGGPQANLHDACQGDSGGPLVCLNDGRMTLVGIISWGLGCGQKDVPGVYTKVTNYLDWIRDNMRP
Y. pestis Pla, sequence (P17811 21-312 limits assumed): as the sequence (P17811 21-312 limits assumed) above
Plasmin, sequence (P00747 581-810 limits assumed): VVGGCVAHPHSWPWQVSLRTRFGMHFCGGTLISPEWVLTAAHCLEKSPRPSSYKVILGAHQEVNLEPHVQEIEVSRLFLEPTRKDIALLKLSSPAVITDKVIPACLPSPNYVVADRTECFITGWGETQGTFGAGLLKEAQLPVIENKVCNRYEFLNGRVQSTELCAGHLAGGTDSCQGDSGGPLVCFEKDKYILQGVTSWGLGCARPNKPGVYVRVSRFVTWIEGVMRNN
Plasmin, sequence (P00747 97-580 partner limits assumed): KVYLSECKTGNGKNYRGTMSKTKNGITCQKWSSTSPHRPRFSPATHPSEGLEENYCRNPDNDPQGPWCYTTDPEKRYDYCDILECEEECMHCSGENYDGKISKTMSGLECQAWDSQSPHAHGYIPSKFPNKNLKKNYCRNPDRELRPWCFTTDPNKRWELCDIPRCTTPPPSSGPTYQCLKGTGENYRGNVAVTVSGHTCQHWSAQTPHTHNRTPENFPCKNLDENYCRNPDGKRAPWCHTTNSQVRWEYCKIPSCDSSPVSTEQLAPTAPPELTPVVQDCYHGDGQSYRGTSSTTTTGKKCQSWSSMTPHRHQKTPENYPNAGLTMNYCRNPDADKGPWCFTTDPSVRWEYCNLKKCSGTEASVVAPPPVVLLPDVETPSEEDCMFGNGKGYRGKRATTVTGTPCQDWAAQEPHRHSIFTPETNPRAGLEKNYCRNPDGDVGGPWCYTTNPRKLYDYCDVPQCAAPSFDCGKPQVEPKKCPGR
T5 sequence (P07339 65-412): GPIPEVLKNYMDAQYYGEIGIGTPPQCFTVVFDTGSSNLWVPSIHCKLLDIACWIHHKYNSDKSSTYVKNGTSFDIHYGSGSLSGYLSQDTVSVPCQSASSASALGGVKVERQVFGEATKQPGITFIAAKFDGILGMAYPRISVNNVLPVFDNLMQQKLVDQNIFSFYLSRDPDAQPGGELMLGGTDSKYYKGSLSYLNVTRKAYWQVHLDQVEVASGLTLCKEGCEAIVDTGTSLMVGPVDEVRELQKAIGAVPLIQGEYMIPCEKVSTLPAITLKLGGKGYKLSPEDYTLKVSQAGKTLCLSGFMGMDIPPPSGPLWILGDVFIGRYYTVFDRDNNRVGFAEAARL

O=S(=O)(Nc1ccccc1C1=NCCc2ccccc21)c1ccc(Cl)cc1 [D]
IC50 (Y. pestis Pla): 35.8 µM

COc1ccc(C)cc1S(=O)(=O)Nc1cc(Cl)ccc1Oc1ccccc1 [G]
IC50 (Y. pestis Pla): 84.2 µM

Cc1ccc(S(=O)(=O)Nc2ccccc2C(=O)c2ccccc2)cc1 [H]
IC50 (Y. pestis Pla): 100 µM

NCCCC[C@H](NC(=O)[C@@H](N)CCCN=C(N)N)C(=O)O [Arg-Lys] (H-Arg-Lys-OH)
Ki (Pla [1]): 900 µM

O=S(=O)(Nc1ccccc1Oc1ccccc1)c1cc(Cl)ccc1Cl [I]
IC50 (Y. pestis Pla): 139 µM

NC(N)=NCCC[C@H](N)C(=O)NCC(=O)O [Arg-Gly] (H-Arg-Gly-OH)
Ki (Pla [1]): 5200 µM

COC(=O)c1c(C)oc2ccc(N(C(=O)c3ccncc3)S(=O)(=O)c3ccc(F)cc3C)cc12 [A]
IC50 (Y. pestis Pla): 6.6 µM

O=S(=O)(Nc1ccccc1-c1ccccc1)c1ccc(Br)s1 [B]
IC50 (Y. pestis Pla): 8.9 µM

NCCCC[C@H](N)C(=O)NCC(=O)O [Lys-Gly] (H-Lys-Gly-OH)
Ki (Pla [1]): 5600 µM

O=[N+]([O-])c1ccccc1S(=O)(=O)Nc1cc(Cl)ccc1Oc1ccccc1 [Compound 4]
Plasmin Z-Score at 50 μM (Plasmin): 1.4
IC50 (Y. pestis Pla): 9.9 µM
Cathepsin-E Z-Score at 50 μM (cathepsin E): 0.9
inhibition at 50 µM (HIV-1 protease): 11%
tPA Z-Score at 50 μM [2]: 0.4
Cathepsin-D Z-Score at 50 μM (cathepsin D): 0.6
CC50 [3]: 47 µM
uPA Z-Score at 50 μM [4]: 1

COc1ccc(S(=O)(=O)Nc2ccccc2Oc2ccccc2)cc1C [C]
IC50 (Y. pestis Pla): 22 µM

O=S(=O)(Nc1cc(Cl)ccc1Oc1ccccc1)c1cccs1 [Compound 3]
Plasmin Z-Score at 50 μM (Plasmin): 2.5
IC50 (Y. pestis Pla): 1 µM
Cathepsin-E Z-Score at 50 μM (cathepsin E): 0.4
inhibition at 50 µM (HIV-1 protease): 13%
tPA Z-Score at 50 μM [2]: 0.3
Cathepsin-D Z-Score at 50 μM (cathepsin D): 0
CC50 [3]: 49 µM
selectivity ratio [3]: ~50
uPA Z-Score at 50 μM [4]: 0.5

CC(C)[C@H](NC(=O)[C@@H](N)CCCCN)C(=O)O [Lys-Val, reference compound] (H-Lys-Val-OH; C-terminus assumed)
inhibition at 16000 µM (Y. pestis Pla; read-out: Average inhibition): 60%
Ki (Pla [1]): 8400 µM

O=S(=O)(Nc1cc(Cl)ccc1Oc1ccccc1)c1ccc2c(c1)OCCO2 [Compound 1]
Plasmin Z-Score at 50 μM (Plasmin): 4.9
IC50 (Y. pestis Pla): 4.25 µM
Cathepsin-E Z-Score at 50 μM (cathepsin E): −0.1
inhibition at 50 µM (HIV-1 protease): 10%
tPA Z-Score at 50 μM [2]: −0.3
Cathepsin-D Z-Score at 50 μM (cathepsin D): −0.2
CC50 [3]: > 100 µM
uPA Z-Score at 50 μM [4]: 0.5

COc1ccc(S(=O)(=O)Nc2ccccc2Oc2ccccc2)c(OC)c1 [F]
IC50 (Y. pestis Pla): 52.3 µM

O=C(O)CN(CCN(CC(=O)O)CC(=O)O)CC(=O)O [EDTA]
Inhibitory effect against Pla (Pla [5]): enhance activity

CC(=O)Nc1ccc(S(=O)(=O)Nc2ccccc2Oc2ccccc2)cc1 [E]
IC50 (Y. pestis Pla): 50.4 µM

CC(C)[C@H](NC(=O)[C@@H](N)CCCNC(=N)N)C(=O)O [Arg-Val] (H-Arg-Val-OH; N-terminus and C-terminus assumed)
Ki (Pla [1]): 4800 µM

NCCCC[C@H](NC(=O)[C@@H](N)CCCCN)C(=O)O [Lys-Lys]
Ki (Pla [1]): 4500 µM

CC(C)CC(=O)N[C@H](C(=O)N[C@H](C(=O)N[C@@H](CC(C)C)[C@@H](O)CC(=O)N[C@@H](C)C(=O)N[C@@H](CC(C)C)[C@@H](O)CC(=O)O)C(C)C)C(C)C [pepstatin] (Isovaleryl-VV[Sta]A[Sta]-OH)
Inhibitory effect against Pla (Pla [5]): no inhibitory effect

O=C(O)CN(CCOCCOCCN(CC(=O)O)CC(=O)O)CC(=O)O [EGTA]
Inhibitory effect against Pla (Pla [5]): enhance activity

O=S(=O)(Nc1ccccc1-c1ccccc1)c1cccs1 [Compound 2]
Plasmin Z-Score at 50 μM (Plasmin): 1.8
IC50 (Y. pestis Pla): 4.3 µM
Cathepsin-E Z-Score at 50 μM (cathepsin E): −0.3
inhibition at 50 µM (HIV-1 protease): 2%
tPA Z-Score at 50 μM [2]: 0.5
Cathepsin-D Z-Score at 50 μM (cathepsin D): −1.6
CC50 [3]: 62 µM
uPA Z-Score at 50 μM [4]: 0.5
